Results as given in paper PMC9688808, “Discovery of Novel Lin28 Inhibitors to Suppress Cancer Cell Stemness” (Cancers, 2022).

How the values were obtained:
Lin28A ZKD = molecular target: T1, Lin28A ZKD (Homo sapiens, UniProt Q9H9Z2); test: EMSA, Lin28A ZKD–Let-7 complex; format: binding; conditions: compounds 100–1200 uM
T1 construct: Lin28A ZKD (aa121-187); His-tag; made in house; host or cells: Escherichia coli BL21
T1 sequence (Q9H9Z2 121-187): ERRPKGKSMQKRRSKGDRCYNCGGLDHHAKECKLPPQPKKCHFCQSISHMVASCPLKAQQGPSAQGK
Description: (§1) EMSA followed the standard protocols we published with minor modifications. An IRDye800CWN-labeled Let-7 RNA probe was purchased from IDT (Coralville, IA, USA). Lin28B or Lin28A proteins were incubated with […] of probe in a standard 20 uL EMSA reaction in a reaction buffer containing 20 mM HEPES-NaOH, pH 7.4, 2 mM DTT, 3 mM MgCl2, 0.05% NP-40, protease inhibitors, and 0.1 ug poly[dI:dC]. After incubation for 30 min at 37 °C, reactions were loaded onto 4% non-denatured polyacrylamide gel in 0.5× TBE buffer. The RNA oligo bands were visualized by using the Li-Cor Odyssey 9120 Infrared Imaging System.
(§2) Figure 5 Lin28 inhibitors block the Lin28A isoform. (A) EMSA used 10 nM of IR800DyeCWN-labeled Let-7 probe (lane 1), 0.5 uM Lin28A ZKD protein with 10 nM of labeled Let-7 probe (lane 2), or Lin28A ZKD, labeled Let-7 probe and 100× non-labeled competitor probe (lane 3). EMSA used Lin28A ZKD, labeled Let-7 probe, and 100–1200 uM of indicated compounds (lanes 4–10). (B) FP assays were performed by using 10 uM of Lin28A ZKD, 1 nM of FAM-labeled Let-7 probe, and 1 nM–200 uM of compounds. (C) Lin28A-positive IGROV1 cells were treated with 20 uM of the indicated compound for 48 h. Real-time qPCR measured RNA levels of Let-7d, SOX2, and HMGA2. Three biological replicates were performed and all results are presented as mean +/− SD. p-value ≤ 0.05—(*); ≤0.01—(**); ≤0.001—(***).

DUNE cells = test: Real-time qPCR of Let-7d, SOX2, HMGA2 in DUNE cells; format: cell-based; conditions: 20 uM, 48 h
Description: (§3) The DUNE cell line and DUNE cells with Lin28B knockout by CRISPR (DUNE (KO)) were reported in our previous studies. IGROV1 cells were obtained from Sigma-Aldrich (St. Louis, MO, USA). DUNE and DUNE (KO) cells were cultured in Dulbecco’s Modified Eagle Medium with high Glucose/L-glutamine (DMEM; Hyclone, Logan, UT, USA) and 10% of fetal bovine serum (FBS; Gibico, Waltham, MA, USA). IGROV1 cells were cultured in Roswell Park Memorial Institute 1640 (RPMI-1640; Hyclone) medium with 10% FBS. All the cell lines were incubated in 5% CO2 at 37 °C and were tested for mycoplasma contamination monthly and cell line authentication was tested by short tandem repeat profiling by ATCC.
(§4) There are several standard molecular techniques, including real-time qPCR, flow cytometry, cell proliferation, colony formation, and immunoblotting assays, that have been reported previously by our lab.
Figure 4 Lin28 inhibitors restore Let-7d expression and suppress SOX2 and HMGA2 genes. DUNE (top) and DUNE (KO) (bottom) cells were treated with 20 uM of the indicated compounds for 48 h. Real-time qPCR measured RNA levels of Let-7d, SOX2, and HMGA2. Three biological replicates were performed and all results are presented as mean +/− SD. p-value ≤ 0.05—(*); ≤0.01—(**); ≤0.001—(***).

IGROV1 cells = test: Real-time qPCR of Let-7d, SOX2, HMGA2 in IGROV1 cells; format: cell-based; conditions: IGROV1 cells (Lin28A-positive), 20 uM, 48 h
Description: as §3, §4, §2

Lin28B ZKD [1] = molecular target: T2, Lin28B ZKD (Homo sapiens, UniProt Q6ZN17); test: Bio-layer interferometry (BLI) with Avi-tagged Lin28B ZKD; format: binding; conditions: for BLI binding to Lin28 ZKD: up to 100 µM
T2 construct: His-tagged human Lin28B ZKD (aa110-174); His-tag; made in house; host or cells: Escherichia coli BL21
T2 sequence (Q6ZN17 110-174): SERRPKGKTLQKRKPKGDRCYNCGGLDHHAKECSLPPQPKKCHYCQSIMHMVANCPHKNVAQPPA
Description: BLI assays were performed as we previously reported to quantify the direct and reversible interactions between small molecules and Lin28B ZKD by using OctetRED (ForteBio, Bohemia, NY, USA). Lin28B was thus expressed with His-tag and a biotinylated AviTag sequence ([…]) at its N-terminus in Escherichia coli BL21 cells. Purified Lin28B ZKD (50 ug/mL) was bound to the super-streptavidin sensors for 1 h at room temperature. Sensors were next blocked with biocytin, washed, and then dipped into wells containing increasing concentrations of the tested inhibitors in assay buffer (20 mM N-2-hydroxyethylpiperazine-N0-2-ethanesulfonic acid (HEPES), 150 mM NaCl, 500 uM tris(2-carboxyethyl) phosphine (TCEP), and 1% dimethylsulfoxide (DMSO)). Association for 200 s and dissociation in assay buffer for 100 s were recorded for each well. Data analysis was done using the OctetRED software (ForteBio, Bohemia, NY, USA).
(§5) Figure 3 Lin28 inhibitors block the interaction between Lin28B ZKD and Let-7. (A) EMSA used 10 nM of IR800DyeCWN-labeled let-7 probe (lane 1), 0.5 uM Lin28B ZKD protein with 10 nM of labeled Let-7 probe (lane 2), or Lin28B ZKD, labeled Let-7 probe and 100× non-labelled competitor probe (lane 3). EMSA used Lin28B ZKD, labeled Let-7 probe, and 100–1200 uM of indicated compounds (lanes 4–10). (B) FP assays were performed by using 10 uM of Lin28B ZKD and 1 nM of FAM-labeled Let-7 probe and 1 nM–1000 uM of compounds. (C) Bio-layer interferometry (BLI) assays were performed using 0–25 uM of Ln115 with Avi-tagged Lin28B ZKD protein. (D) Chemical structures of the three lead compounds were shown.
To validate that these molecules indeed directly bind to the ZKD domain of Lin28 in a reversible and dose-dependent manner, we used the biolayer interferometry (BLI) assay. Biotinylated Avi-tagged Lin28 ZKD was immobilized onto streptavidin biosensors. The sensor plates were then dipped in successive wells containing increasing concentrations of Ln7, Ln 15, or Ln115. […]

Lin28B ZKD [2] = molecular target: T2, Lin28B ZKD; test: EMSA, Lin28B ZKD–Let-7 complex; format: binding; conditions: compounds 0–1200 uM
Description: as §1, §5

Structure (SMILES)	concentration that inhibits formation of Lin28A ZKD–Let-7 complex in EMSA (Lin28A ZKD)	HMGA2 mRNA level (DUNE cells)	Let-7d expression level (DUNE cells)	SOX2 mRNA level (DUNE cells)	Let-7 microRNA levels (IGROV1 cells)	Kd (Lin28B ZKD [1]; 0–25 uM Ln115, Avi-tagged Lin28B ZKD, read-out: estimated KD (BLI))	concentration that disrupts ZKD–Let-7 complex in EMSA (Lin28B ZKD [2])	upregulation of Let-7 (IGROV1 cells)	BLI binding to Lin28 ZKD (Lin28B ZKD [1])	inhibition of ZKD–Let-7 complex in EMSA (Lin28B ZKD [2])
CC(=O)N(C)c1cccc(-c2ccc3nnc(C)n3n2)c1 [compound 1632, reference compound]	> 1200 µM	not	did not show any impacts	not	upregulated	–	–	–	–	–
O=c1cccc(-c2nc3cc(F)c(O)cc3c(=O)[nH]2)[nH]1 [Ln115]	100 to 400 µM	strongly inhibited	approximately six- to eight-fold	strongly inhibited	–	60 ± 4 µM	–	–	–	–
O=c1[nH]c(Nc2ccccc2O)cs1 [Ln15]	100 to 400 µM	strongly inhibited	approximately six- to eight-fold	strongly inhibited	–	–	400 µM	10 fold	non-specific binding to the sensors	–
CCOc1cccc2c1N[C@@H](c1ccc(C(=O)O)cc1)[C@H]1CC=C[C@@H]21 [Li71, reference compound]	100 to 400 µM	strongly inhibited	approximately six- to eight-fold	strongly inhibited	upregulated	–	–	–	–	robust inhibition
CCc1cc(=O)[nH]c(Nc2cc(Cl)ccc2O)n1 [Ln7]	> 1200 µM	strongly inhibited	approximately six- to eight-fold	strongly inhibited	–	–	> 1000 µM	–	did not show any binding	–
